According to patent publication US12208075B2, “Antimicrobial compositions containing free fatty acids” (priority 2009, dated 2025):

Tests used:
[1] = test system: adhesion of Candida albicans to human Buccal Epithelial Cells; experiment: microbe, parasite or virus in culture; type: cell-based; settings: for incremental increase in adhesion inhibitory effect achieved by de-lipidisation (in brackets): versus Table 4
[2] = test system: Staphylococcus aureus RN 4220; experiment: Comparative microbicidal suspension test, free vs emulsified fatty acids; type: cell-based
fresh sheep blood [3] = experiment: Blood clotting time, visual tube comparison; settings: between 0.5% and […] caprylic acid emulsified in 0.5% DLL
Experimental: Comparative measurement of accelerated clotting times is achieved using appropriate volumes of fresh blood mixed with a volume of test material, where the combined volumes totaled 5 ml in each case in a 15 ml graduated Greiner centrifuge tube (Greiner Bio-one, North Carolina, USA). Immediately after addition of fresh blood, the tubes are inverted twice to mix and allowed to stand without further agitation. Clot formation is visibly apparent when the tubes are tilted slightly, and once a clot formed its integrity was such that it would remain suspended when the tubes were inverted. In each test a 5 ml sample of fresh whole blood (undiluted) is used as a control.
Rate of blood clotting was determined using freshly aspirated sheep blood and apparatus and procedures described in the Methods section. An activated blood clotting meter was used to measure anti-clotting effects and a visual tube comparison to evaluate reduced clotting times.
Blood clotting and/or anti-clotting effects were assessed using a 20% ratio of test item to fresh blood: in practice 4.0 ml of fresh sheep blood was added to tubes containing 1.0 ml of test item, inverted twice to mix and then either left standing for visual assessment of reduced clotting time or a single drop was applied to the cuvette of an activated blood clotting apparatus for assessment of anti-clotting effect (extended time to clot formation).

Staphylococcus aureus [4] = experiment: Ex-vivo wound model (beef brisket); settings: FIG. 10, 100 minutes exposure, 7 logs inoculum
Escherichia coli = experiment: Microbicidal effect of catheter locking solutions in whole blood; type: cell-based; settings: 20% by volume, 60 min
Staphylococcus aureus [5] = experiment: as above; type: cell-based; settings: 20% by volume, 60 min
[6] = test system: Streptococcus epidermidis; experiment: as above; type: cell-based; settings: 20% by volume, 60 min
Candida albicans = experiment: as above; type: cell-based; settings: 20% by volume, 60 min
[7] = test system: Staphylococcus aureus, Streptococcus epidermidis, Escherichia coli and Candida albicans; experiment: Microbicidal effect of catheter locking solutions in whole blood, test inoculums overall; type: cell-based; settings: 20%, one hour in whole blood
fresh sheep blood [8] = experiment: Activated blood clotting time (Hemochron meter)
[9] = 2.5 mg/ml, Table 5, de-lipidised
[10] = 5.0 mg/ml, Table 5, de-lipidised
[11] = 10 mg/ml, Table 5, de-lipidised
[12] = Table 21, 0.5% W/V fatty acid, free or emulsified in 0.4% W/V DLL
[13] = Table 22, low dose, listed as Free caprylic acid 0.05%
[14] = Table 22, low dose, listed as Free caprylic acid 0.1%
[15] = 2.5 mg/ml, Table 4, lipids as purchased
[16] = 5.0 mg/ml, Table 4, lipids as purchased
[17] = 10 mg/ml, Table 4, lipids as purchased

Molecule	% Adhesion ([1]; Table 21) [%]	% inhibition ([1]; Table 21) [%]	Test Count/100 BEC [1, 12]	viable count (log number) ([2]; 0 Seconds at 37° C.) [log]	viable count (log number) ([2]; 60 Seconds at 37° C.) [log]	viable count (log number) ([2]; 120 Seconds at 37° C.) [log]	viable count (log number) ([2]; 180 Seconds at 37° C.) [log]	viable count (log number) ([2]; 240 Seconds at 37° C.) [log]	viable count (log number) ([2]; 300 Seconds at 37° C.) [log]	viable count (log number) ([2]; 360 Seconds at 37° C.) [log]	further results
CC(C)=CCC[C@@H](C)[C@H]1CC[C@@]2(C)C3=C(CC[C@]12C)[C@@]1(C)CC[C@H](O)C(C)(C)[C@@H]1CC3 [DL L]	–	–	–	–	–	–	–	–	–	–	% inhibition at 2.5 mg/ml ([1]; 2.5 mg/ml, Table 5): 54%; Candida albicans per 100 Buccal Epithelial Cell [1, 9]: 247; incremental increase in adhesion inhibitory effect achieved by de-lipidisation (in brackets) ([1]; 2.5 mg/ml): +13%; Candida albicans per 100 Buccal Epithelial Cell [1, 10]: 91; Candida albicans per 100 Buccal Epithelial Cell [1, 11]: 49
CCCCCCCCCC(=O)O [Free capric acid, capric acid]	90	10	386	6.94	6.32	6.48	6.73	6.36	5.97	6.11	–
CCCCCC(=O)O [Free caproic acid, caproic acid]	89	11	380	7.87	7.17	6.82	7.57	6.93	6.47	6.73	–
CCCCCCCC(=O)O [Free caprylic acid, caprylic acid]	93	7	400	6.94	6.79	6.83	6.21	6.33	5.89	6.17	% Adhesion [1, 13]: 94%; % inhibition [1, 13]: 6%; Test Count/100 BEC [1, 13]: 459; % Adhesion [1, 14]: 95%; % inhibition [1, 14]: 5%; Test Count/100 BEC [1, 14]: 466; factor of amplification of adhesion inhibitory effect in emulsified form ([1]; emulsified versus free): 14; clotting time (fresh sheep blood [3]): approximately 40 seconds
CCCCCCCCCCCC(=O)O [Free lauric acid, lauric acid]	95	5	450	–	–	–	–	–	–	–	–
CCCCCCCCCCCCCC(=O)O [Free myristic acid, myristic acid]	92	8	436	7.38	7.27	7.84	6.93	7.11	6.26	6.84	–
CCCCCCCCC(=O)O [Free pelargonic acid, pelargonic acid]	84	16	360	6.94	6.55	6.31	5.96	5.67	5.83	5.27	–
C=CCCCCCCCCC(=O)O [Free undecylenic acid, undecylenic acid]	86	14	448	7.87	7.19	6.99	6.57	6.83	6.67	6.31	–
CC(C)=CCC[C@@H](C)[C@H]1CC[C@@]2(C)C3=C(CC[C@]12C)[C@@]1(C)CC[C@H](O)C(C)(C)[C@@H]1CC3 [L, Lanosterol]	–	–	–	–	–	–	–	–	–	–	Candida albicans per 100 Buccal Epithelial Cell [1, 15]: 306; Candida albicans per 100 Buccal Epithelial Cell [1, 16]: 236; Candida albicans per 100 Buccal Epithelial Cell [1, 17]: 133; inhibition at 2500 µg/mL ([1]; Candida albicans, Epithelial cell, read-out: % inhibition at 2.5 mg/ml): 41%
[H]/N=C(\N/C(=N/[H])NCCCCCCNC(=N)NC(=N)Nc1ccc(Cl)cc1)Nc1ccc(Cl)cc1 [chlorhexidine, chlorhexidine gluconate]	–	–	–	–	–	–	–	–	–	–	logs remaining (Staphylococcus aureus [4]): 1 logs
Bovine Serum Albumin [BSA, reference compound]	–	–	–	–	–	–	–	–	–	–	% inhibition at 2.5 mg/ml ([1]; 2.5 mg/ml, Table 4): 19%; Candida albicans per 100 Buccal Epithelial Cell [1, 15]: 400; Candida albicans per 100 Buccal Epithelial Cell ([1]; 2.5 mg/ml, Table 6, water or 100 mM salt pH 4.5, with/without BSA, listed as BSA Sod′ Lactate): 408; Candida albicans per 100 Buccal Epithelial Cell ([1]; 2.5 mg/ml, Table 6, water or 100 mM salt pH 4.5, with/without BSA, listed as BSA Sod′ citrate): 393; Candida albicans per 100 Buccal Epithelial Cell ([1]; 2.5 mg/ml, Table 6, water or 100 mM salt pH 4.5, with/without BSA, listed as BSA: water): 438; Candida albicans per 100 Buccal Epithelial Cell [1, 16]: 379; % inhibition at 5 mg/ml ([1]; Table 6, listed as BSA Sod′ Lactate): 21%; Candida albicans per 100 Buccal Epithelial Cell ([1]; 5.0 mg/ml, Table 6, listed as BSA Sod′ Lactate): 372; % inhibition at 5 mg/ml ([1]; Table 6, listed as BSA Sod′ citrate): 22%; Candida albicans per 100 Buccal Epithelial Cell ([1]; 5.0 mg/ml, Table 6, listed as BSA Sod′ citrate): 369; % inhibition at 5 mg/ml ([1]; Table 6, listed as BSA: water): 12%; Candida albicans per 100 Buccal Epithelial Cell ([1]; 5.0 mg/ml, Table 6, listed as BSA: water): 400; Candida albicans per 100 Buccal Epithelial Cell [1, 17]: 303; Candida albicans per 100 Buccal Epithelial Cell ([1]; 10 mg/ml, Table 6): 362; % Adhesion ([1]; Table 16): 83%; % inhibition ([1]; Table 16): 17%; Count/100 BEC ([1]; Table 16, 100 mM sodium citrate pH 4.5, 0.5% Methocel, lipids 0.1%): 425
DL BSA: Bovine Serum Albumin treated by the de-lipidisation procedure [reference compound]	–	–	–	–	–	–	–	–	–	–	% inhibition at 2.5 mg/ml ([1]; 2.5 mg/ml, Table 5): 16%; Candida albicans per 100 Buccal Epithelial Cell [1, 9]: 431; incremental increase in adhesion inhibitory effect achieved by de-lipidisation (in brackets) ([1]; 2.5 mg/ml): −3%; Candida albicans per 100 Buccal Epithelial Cell [1, 10]: 393; Candida albicans per 100 Buccal Epithelial Cell [1, 11]: 329
Heparin	–	–	–	–	–	–	–	–	–	–	viable count in whole blood (log number) (Escherichia coli): 7.92 log; viable count in whole blood (log number) (Staphylococcus aureus [5]): 8.39 log; viable count in whole blood (log number) [6]: 8.22 log; viable count in whole blood (log number) (Candida albicans): 6.94 log; microbicidal effect in words [7]: no microbial inhibition; Activated Blood Clotting Time (fresh sheep blood [8]; 5% incorporation in whole blood): 284 s; Activated Blood Clotting Time (fresh sheep blood [8]; 10% incorporation in whole blood): 423 s; Activated Blood Clotting Time (fresh sheep blood [8]; 15% incorporation in whole blood): 601 s; Activated Blood Clotting Time (fresh sheep blood [8]; 20% incorporation in whole blood): 1023 s
